Source: PMC9411704, “Assessment of the Carcinogenic Potential of Pretomanid in Transgenic Tg.rasH2 Mice” (International Journal of Toxicology, 2022)
Entries after “also recorded” stand apart in the source; their conditions may differ.

Experiments:
[1] = system: Salmonella typhimurium TA98, TA100, TA1535, TA1537 and Escherichia coli WP2uvrA; assay: Bacterial reverse mutation (Ames) assay, overall over five tester strains; assay type: cell-based; conditions: up to 2500 μg/plate
Protocol: (§1) Pretomanid and metabolite M50 were evaluated over a range of concentrations, with and without an added metabolic activation system, in five tester strains: Salmonella typhimurium histidine auxotrophs TA98, TA100, TA1535, and TA1537 [9] and the Escherichia coli tryptophan auxotroph WP2uvrA. S. typhimurium strains were received from Dr. Bruce Ames, Department of Biochemistry, University of California (Berkeley, CA). The E. coli strain was received from The National Collection of Industrial Bacteria, Torrey Research Station, Aberdeen, Scotland (United Kingdom). The metabolic activation system was a liver homogenate (S9) mix. The S9 component was prepared from male Sprague-Dawley rats that had been injected (intraperitoneally) with Aroclor^TM 1254 at 500 mg/kg, 5 days before sacrifice. The S9 mix was prepared immediately before use and contained 10% S9, 5 mM glucose-6-phosphate, 4 mM β-nicotinamide adenine dinucleotide phosphate, 8 mM MgCl2 and 33 mM KCl in a 100 mM phosphate buffer at pH 7.4. Pretomanid was tested at 0.05 to 5000 μg/plate. Metabolite M50 was tested at 78 to 2500 μg/plate. A negative (solvent) control culture and appropriate positive control cultures were included in each assay.
(§2) Bacteria were exposed to test materials by the plate incorporation method originally described by Ames et al and updated by Maron and Ames. Bottom agar was Vogel-Bonner minimal medium E [12] with 1.5% (w/v) agar, and the top Agar was 0.7% (w/v) agar and 0.5% (w/v) NaCl. After incubation, cultures were evaluated using a dissecting microscope for precipitation or cytotoxicity, and revertant colonies were counted. The mean numbers of revertant colonies in various cultures were compared to reach conclusions about assay validity and mutagenic potential. For the test article to be evaluated positive, it must cause a dose-related increase in the mean revertants per plate of at least one tester strain with a minimum of two increasing concentrations of test article.

[2] = Toxicokinetic assessment in wild-type CByB6F1 mice (Day 14); assay type: in vivo; conditions: for Mouse M50 AUC0-24 as multiple of estimated human M50 AUC0-24: highest dose, human 200 mg/day
Protocol: TK animals were included for the vehicle control (n = 4 sex) and pretomanid-treated groups (n = 10 sex/group). The TK cohort animals were dosed by oral gavage once daily for 14 consecutive days.
Toxicokinetic blood samples (300 μL for males and 250 μL for females) were collected in K3EDTA tubes after 14 doses from the TK cohort via retro-orbital bleeding under 70% CO2/30% O2 anesthesia. On Day 14, control mice were bled once 2 hours after dosing. On Day 14 and 15, Pretomanid-treated mice were bled predose, 0.5, 1, 3, 6, and 24 hours post dose. TK animals were euthanized after their final blood collection.
Collected blood was stored on wet ice until the samples were processed to plasma. Blood samples were centrifuged at 4±2°C and 8000 g for 5 minutes. Plasma was snap frozen in liquid nitrogen and stored in a deep freezer (≤−60°C) within 60 minutes of bleeding the TK animals.
Pretomanid and the M50 metabolite were quantified in mouse plasma by liquid chromatography-tandem mass spectrometry (LC-MS/MS) after protein precipitation. Aliquots of 25 µL of plasma were spiked with internal standards (PA-824-d5 or morphine) and proteins were precipitated in 1% formic acid in acetonitrile. A partial supernatant from each sample was transferred to a clean plate and diluted in acetonitrile/water (40:60) for pretomanid and deionized water for M50. Supernatant was analyzed for pretomanid or M50 using validated LC-MS/MS methods with a linear range of 20 to 10,000 ng/mL for pretomanid and 10 to 5,000 ng/mL for M50 (methods validated at Alliance Pharma, Malvern PA).
Sample collection time and plasma concentration data were analyzed to derive TK parameters by standard model independent methods based on the mean plasma concentration-time data for each dose group. The TK analyses of the plasma concentration profiles were performed using non-compartmental analysis in Phoenix WinNonlin Professional 7.0 (Certara, L.P., St. Louis, MO, USA). Concentration values below the lower limit of quantitation were treated as zeros for analysis purposes.

[3] = system: Escherichia coli WP2uvrA; assay: Bacterial reverse mutation (Ames) assay, plate incorporation
Protocol: as §1, §2

[4] = system: Salmonella typhimurium TA98; assay: as above; assay type: cell-based
Protocol: as §1, §2

[5] = system: Salmonella typhimurium TA1535; assay: as above; assay type: cell-based
Protocol: as §1, §2

[6] = system: Salmonella typhimurium TA100; assay: as above; assay type: cell-based
Protocol: as §1, §2

[7] = system: Salmonella typhimurium TA1537; assay: as above; assay type: cell-based
Protocol: as §1, §2

## O=[N+]([O-])c1cn2c(n1)OC[C@@H](O)C2 [M50]
[1]; single non-GLP assay
  Precipitate or cytotoxicity in the Ames assay: no precipitate or cytotoxicity at any concentration
[1]; with and without S9, non-GLP
  Mutagenic potential: genotoxic; also recorded: positive
[2]; all dose levels, both sexes
  Exposure to M50 metabolite relative to pretomanid: less than 10%
[2]; female, CByB6F1 (wild-type), mouse, plasma, oral, 80 mg/kg/day, females, highest dose in the carcinogenicity study, read-out: Mean M50 AUC0-24
  AUC(0-t): 10200 ng·h/mL
[2]; females
  Mouse M50 AUC0-24 as multiple of estimated human M50 AUC0-24: approximately 3 X
[2]; males, highest dose in the carcinogenicity study
  Mean M50 AUC0-24: 4600 ng·h/mL
[2]; males
  Mouse M50 AUC0-24 as multiple of estimated human M50 AUC0-24: approximately 1.5 X
[3]; WP2uvrA +S9, 78 μg/plate
  Mean Number of Revertants/Plate: 18 Revertants/Plate
[3]; WP2uvrA +S9, 156 μg/plate
  Mean Number of Revertants/Plate: 17 Revertants/Plate
[3]; WP2uvrA +S9, 313 μg/plate
  Mean Number of Revertants/Plate: 23 Revertants/Plate
[3]; WP2uvrA +S9, 625 μg/plate
  Mean Number of Revertants/Plate: 48 Revertants/Plate
[3]; WP2uvrA +S9, 1250 μg/plate
  Mean Number of Revertants/Plate: 50 Revertants/Plate
[3]; WP2uvrA +S9, 2500 μg/plate
  Mean Number of Revertants/Plate: 50 Revertants/Plate
[3]; WP2uvrA −S9, 78 μg/plate
  Mean Number of Revertants/Plate: 18 Revertants/Plate
[3]; WP2uvrA −S9, 156 μg/plate
  Mean Number of Revertants/Plate: 24 Revertants/Plate
[3]; WP2uvrA −S9, 313 μg/plate
  Mean Number of Revertants/Plate: 26 Revertants/Plate
[3]; WP2uvrA −S9, 625 μg/plate
  Mean Number of Revertants/Plate: 29 Revertants/Plate
[3]; WP2uvrA −S9, 1250 μg/plate
  Mean Number of Revertants/Plate: 49 Revertants/Plate
[3]; WP2uvrA −S9, 2500 μg/plate
  Mean Number of Revertants/Plate: 71 Revertants/Plate
[3]; WP2uvrA, presence and absence of S9
  Change in revertant colonies: significant increases
[4]; TA98 +S9, 78 μg/plate
  Mean Number of Revertants/Plate: 18 Revertants/Plate
[4]; TA98 +S9, 156 μg/plate
  Mean Number of Revertants/Plate: 19 Revertants/Plate
[4]; TA98 +S9, 313 μg/plate
  Mean Number of Revertants/Plate: 22 Revertants/Plate
[4]; TA98 +S9, 625 μg/plate
  Mean Number of Revertants/Plate: 25 Revertants/Plate
[4]; TA98 +S9, 1250 μg/plate
  Mean Number of Revertants/Plate: 24 Revertants/Plate
[4]; TA98 +S9, 2500 μg/plate
  Mean Number of Revertants/Plate: 38 Revertants/Plate
[4]; TA98, presence of S9
  Change in revertant colonies: significant increases
[4]; TA98 −S9, 78 μg/plate
  Mean Number of Revertants/Plate: 13 Revertants/Plate
[4]; TA98 −S9, 156 μg/plate
  Mean Number of Revertants/Plate: 16 Revertants/Plate
[4]; TA98 −S9, 313 μg/plate
  Mean Number of Revertants/Plate: 14 Revertants/Plate
[4]; TA98 −S9, 625 μg/plate
  Mean Number of Revertants/Plate: 17 Revertants/Plate
[4]; TA98 −S9, 1250 μg/plate
  Mean Number of Revertants/Plate: 21 Revertants/Plate
[4]; TA98 −S9, 2500 μg/plate
  Mean Number of Revertants/Plate: 33 Revertants/Plate
[5]; TA1535 +S9, 78 μg/plate
  Mean Number of Revertants/Plate: 12 Revertants/Plate
[5]; TA1535 +S9, 156 μg/plate
  Mean Number of Revertants/Plate: 15 Revertants/Plate
[5]; TA1535 +S9, 313 μg/plate
  Mean Number of Revertants/Plate: 31 Revertants/Plate
[5]; TA1535 +S9, 625 μg/plate
  Mean Number of Revertants/Plate: 42 Revertants/Plate
[5]; TA1535 +S9, 1250 μg/plate
  Mean Number of Revertants/Plate: 67 Revertants/Plate
[5]; TA1535 +S9, 2500 μg/plate
  Mean Number of Revertants/Plate: 81 Revertants/Plate
[5]; TA1535, presence and absence of S9
  Change in revertant colonies: significant increases
[5]; TA1535 −S9, 78 μg/plate
  Mean Number of Revertants/Plate: 20 Revertants/Plate
[5]; TA1535 −S9, 156 μg/plate
  Mean Number of Revertants/Plate: 16 Revertants/Plate
[5]; TA1535 −S9, 313 μg/plate
  Mean Number of Revertants/Plate: 19 Revertants/Plate
[5]; TA1535 −S9, 625 μg/plate
  Mean Number of Revertants/Plate: 24 Revertants/Plate
[5]; TA1535 −S9, 1250 μg/plate
  Mean Number of Revertants/Plate: 43 Revertants/Plate
[5]; TA1535 −S9, 2500 μg/plate
  Mean Number of Revertants/Plate: 60 Revertants/Plate
[6]; TA100 +S9, 78 μg/plate
  Mean Number of Revertants/Plate: 132 Revertants/Plate
[6]; TA100 +S9, 156 μg/plate
  Mean Number of Revertants/Plate: 125 Revertants/Plate
[6]; TA100 +S9, 313 μg/plate
  Mean Number of Revertants/Plate: 252 Revertants/Plate
[6]; TA100 +S9, 625 μg/plate
  Mean Number of Revertants/Plate: 312 Revertants/Plate
[6]; TA100 +S9, 1250 μg/plate
  Mean Number of Revertants/Plate: 666 Revertants/Plate
[6]; TA100 +S9, 2500 μg/plate
  Mean Number of Revertants/Plate: 758 Revertants/Plate
[6]; TA100, presence and absence of S9
  Change in revertant colonies: significant increases
[6]; TA100 −S9, 78 μg/plate
  Mean Number of Revertants/Plate: 120 Revertants/Plate
[6]; TA100 −S9, 156 μg/plate
  Mean Number of Revertants/Plate: 135 Revertants/Plate
[6]; TA100 −S9, 313 μg/plate
  Mean Number of Revertants/Plate: 203 Revertants/Plate
[6]; TA100 −S9, 625 μg/plate
  Mean Number of Revertants/Plate: 294 Revertants/Plate
[6]; TA100 −S9, 1250 μg/plate
  Mean Number of Revertants/Plate: 588 Revertants/Plate
[6]; TA100 −S9, 2500 μg/plate
  Mean Number of Revertants/Plate: 868 Revertants/Plate
[7]; TA1537 +S9, 78 μg/plate
  Mean Number of Revertants/Plate: 9 Revertants/Plate
[7]; TA1537 +S9, 156 μg/plate
  Mean Number of Revertants/Plate: 12 Revertants/Plate
[7]; TA1537 +S9, 313 μg/plate
  Mean Number of Revertants/Plate: 8 Revertants/Plate
[7]; TA1537 +S9, 625 μg/plate
  Mean Number of Revertants/Plate: 14 Revertants/Plate
[7]; TA1537 +S9, 1250 μg/plate
  Mean Number of Revertants/Plate: 20 Revertants/Plate
[7]; TA1537 +S9, 2500 μg/plate
  Mean Number of Revertants/Plate: 11 Revertants/Plate
[7]; TA1537, absence of S9
  Change in revertant colonies: significant increases
[7]; TA1537 −S9, 78 μg/plate
  Mean Number of Revertants/Plate: 8 Revertants/Plate
[7]; TA1537 −S9, 156 μg/plate
  Mean Number of Revertants/Plate: 13 Revertants/Plate
[7]; TA1537 −S9, 313 μg/plate
  Mean Number of Revertants/Plate: 7 Revertants/Plate
[7]; TA1537 −S9, 625 μg/plate
  Mean Number of Revertants/Plate: 13 Revertants/Plate
[7]; TA1537 −S9, 1250 μg/plate
  Mean Number of Revertants/Plate: 10 Revertants/Plate
[7]; TA1537 −S9, 2500 μg/plate
  Mean Number of Revertants/Plate: 18 Revertants/Plate
